{"source": "patent US20250162973A1", "about": "“METHODS OF SYNTHESIS AND USES OF AGRIMOL COMPOUNDS” (Versitech Limited, priority 2022, published 2025)", "tested_on": "CCD-19Lu (human lung fibroblast normal cell)", "assay": "MTT cell viability assay, normal cell", "type": "cell-based", "details": "48-h treatment", "method": "SUNE1 (nasopharyngeal carcinoma), AGS (gastric adenocarcinoma), HeLa (cervix adenocarcinoma), HepG2 (hepatocellular carcinoma), U-87 MG (human glioblastoma cell), U2OS (osteosarcoma), MCF-7 (breast adenocarcinoma), MDA-MB-231 (breast adenocarcinoma), HCT116 (colorectal carcinoma), SW480 (colorectal adenocarcinoma), NCI-H460 (large cell lung carcinoma), NCI-H1650 (adenocarcinoma lung carcinoma), HCC827 (adenocarcinoma lung carcinoma), A549 (lung carcinoma), and CCD-19Lu (human lung fibroblast normal cell) were all obtained from American Type Culture Collection (ATCC, Manassas, VA, USA). Minimum Essential Media (MEM, Gibco®, ThermoFisher Scientific), Dulbecco's Modified Eagle Medium (DMEM, Gibco®, ThermoFisher Scientific), and RPMI-1640 Medium (Gibco®, ThermoFisher Scientific) supplemented with 10% Fetal Bovine Serum (Gibco®, ThermoFisher Scientific), and 100 U/mL penicillin-streptomycin (Gibco™, ThermoFisher Scientific) were used for cell culture. Cells were placed into an incubator with 5% CO2 that temperature was set at 37° C. […]\nThe cell viability assay was performed by a typical MTT assay. […] The formed formazan was then dissolved with SDS solution (10% SDS in 10 mM HCl) and followed the determination of absorbance at 590 nm by a microplate reader. The change in cell viability was then calculated for each drug concentration, then normalized to control. […]", "data": [{"smiles": "CCCC(=O)c1c(O)c(Cc2c(O)c(Cc3c(O)c(C)c(OC)c(C(=O)CCC)c3O)c(O)c(C(=O)[C@@H](C)CC)c2O)c(O)c(C)c1OC", "note": "[AGB, Agrimol B]", "values": [{"measurement": "IC50", "value": 31.1, "unit": "µM"}]}]}
